Data taken from patent publication US20040072811A1, “Use of antiprogestins for the induction of apoptosis in a cell” (priority 2000, published 2004).
Entries after “also recorded” stand apart in the source; their conditions may differ.

Experiments:
T47D cells = assay: Antiproliferative activity in vitro in the T47D cell line (estradiol-stimulated, crystal violet); format: cell-based, human; conditions: 0.1 nM estradiol, 6 days
Procedure: T47D cells were grown in charcoal-treated serum supplemented with 0.1 nM E2 (estradiol) plus antiprogestin (I) for 6 days with one medium change. Following fixation and subsequent staining with crystal violet, the absorbance was recorded and values normalized to the absorbance of untreated controls as described in R. B. Lichtner, J. Steroid Biochem. Mol. Biol. 1999, 71; 181-189. The TUNEL assay is performed analogous to above Example 5 with the only difference that instead of tissue sections cells that are cultivated on microscopic slides are used for the assay.

[1] = tested on: DMBA-induced mammary carcinoma of the rat; assay: Dose-response study in the DMBA-induced mammary tumor model; format: in vivo, Sprague-Dawley rats; conditions: 5 mg/kg s.c. daily, 4 weeks
Procedure: Immature female Sprague-Dawley rats (49-51 days old; 10 animals/group) were used in this study. Mammary tumors were induced by a single oral administration of 10 mg 7,12-dimethylbenz[a]anthracene (DMBA, Serva/Heidelberg). Rats with at least one established tumor with a size of more than 150 mm^2 were treated for 4 weeks by: 1) solvent control, 2) ovariectomy at treatment start, 3) antiprogestin (I), 0,5 mg/kg s.c., 4) antiprogestin (1), 2 mg/kg s.c., 5) antiprogestin (I), 5 mg/kg s.c., 6) antiprogestin (1), 10 mg/kg s.c., and 7) onapristone, 5 mg/kg, s.c., daily. As a parameter for growth inhibition the change of tumor area (in % with respect to initial tumor size) determined by weekly caliper measurements was used. For statistical analysis of intergroup differences of mean values the Kruskal-Wallis-test was used. For a further description and evaluation of the DMBA prevention model, see R. G. Metha, European Journal of Cancer 36 (2000), pp. 1275-1282.

[2] = tested on: NMU-induced mammary carcinoma of the rat; assay: Tumor growth inhibition in NMU-induced breast cancer model in rat; format: in vivo, Sprague-Dawley rats; conditions: 5 mg/kg/day, 4 weeks
Procedure: Tumors were induced by a single intravenous injection of NMU (nitrosomethylurea, 50 mg/kg) in female Sprague-Dawley rats (obtained from Tierzucht Schönwalde, age 50-55 days). Starting 10 days later, rats with at least one established tumor were treated for 4 weeks by: 1) solvent control, 2) ovariectomy at treatment start, 3) antiprogestin (I), 1.0 mg/kg/day, 4) antiprogestin (1), 0.5 mg/kg/day and 5) onapristone, 5 mg/kg/day. As a parameter for growth inhibition the change of tumor area (in % of initial tumor size) determined by weekly caliper measurements was used. For statistical analysis of intergroup differences of mean values the Kruskal-Wallis-test was used.

Structure (SMILES)	inhibition of estradiol-stimulated T47D cell growth (T47D cells)	tumor growth inhibiting effect relative to antiprogestin (I) [1]	tumor growth inhibiting effect relative to antiprogestin (I) at 0.5 mg/kg [2]
CN(CCCCC[C@@H]1Cc2cc(O)ccc2[C@@H]2[C@@H]1[C@@H]1CC[C@H](O)[C@@]1(C)C[C@@H]2F)CCCSCCCC(F)(F)C(F)(F)F [11β-fluoro-7α-{5-[N-methyl-N-3-(4,4,5,5,5-pentafluoropentylthio)-propylamino]-pentyl}-estra-1,3,5(10)-trien-3,17β-diol]	distinctly less effective than antiprogestin (I)	–	–
CN(C)c1ccc([C@H]2C[C@]3(C)[C@@H](CC[C@]3(O)CCCO)[C@@H]3CCC4=CC(=O)CCC4=C32)cc1 [onapristone, reference compound]	did not show any inhibiting effect; also recorded: no reducing effect on cell growth	distinctly less effective than antiprogestin (I)	distinctly less effective than antiprogestin (1)
